How the values were obtained:
[1] = test system: TPA-induced ear oedema; assay: Inhibition of TPA-induced ear oedema after topical administration; format: in vivo, male Swiss mice; details: TPA 2 μg/ear, topical 20 μL of 0.39 nM solution in ethanol 15 min before TPA, ear weight change; for % inhibition 3 hours post-treatment: 3 h post TPA; for % inhibition 5 hours post-treatment: 5 h post TPA
Text: The tested compounds are: • (11β,16α)-9-fluoro-11-hydroxy-16,17-[1-methylethylidene bis(oxy)]-21-[1-oxo-[4-(nitrooxymethyl)benzoxy]]pregna-1,4-diene-3,20-dione, prepared as described in example 1; • Triamcinolone acetonide that is the reference compound for the compound of example 1; • (11β)-17-[(ethoxycarbonyl)oxy]-11-hydroxy-21-[1-oxo-[4-(nitrooxy methyl)benzoxy]]pregna-1,4-diene-3,20-dione, prepared as described in example 2; • Prednicarbate that is the reference compound for the compound of example 2; The tests were performed according to the methods described by Carlson et al., Agents Actions 17:197-204, 1985, and Lucas et al., J Pharmacol Exp Ther 304:1172-1180, 2003.
Groups of 5-9 male Swiss mice of 27±5 g were used. Inflammation dermatitis was induced by applying 2 μg/ear of TPA (Tetradecanoyl Phorbol Acetate) dissolved with ethanol absolute on the surface of either the dorsal aspect of both ears (20 μL/ear).
15 min before the application of TPA, mice received topically 20 μL of a solution of test compounds (0.39 nM in ethanol) per site applied directly on the skin of the left ear and the vehicle (ethanol 100%) on right ear. Vehicle-Vehicle treated mice were included as negative control group. Compounds were tested at equimolecular doses.
Animals were sacrificed at 3 h or 5 h post TPA dose. Equal sections of both ears were punched out immediately after and weighed. The percentage of change of the weight of left ear versus the weight of right ear was calculated for each animal, and the percentage of inhibition of change in weight of treated animals versus the change in weight of non-treated animals (negative control) was measured.

[2] = test system: TNF-α; assay: TPA-induced increase of TNF-α in mouse ear; format: in vivo, Swiss male mice; details: for TNFalpha: ear homogenate, Mean ± S.E.M. (n = 10)
Protocol: (§1) A ear section of the right ear of mice were homogenized in 500 μl saline, and after centrifugation at 1,200 g for 15 min at 4° C., the PGE2 and TNF-α levels were determined by radioimmunoassay (Hoult et al., Methods Enzymol 1994) or by time-resolved fluoroimmunoassay ([…] et al., Int J. Immunopharmacol. 1995), respectively. Test compounds dissolved in the vehicle were applied topically 15 min before TPA administration.

[3] = test system: PGE2; assay: TPA-induced increase of PGE2 in mouse ear; format: in vivo, Swiss male mice; details: for PGE2: ear homogenate, Mean ± S.E.M. (n = 10)
Protocol: as §1

[4] = test system: irritant contact dermatitis induced by benzalkonium chloride; assay: Contact dermatitis induced by benzalkonium in mice (ear edema); format: in vivo; set-up: Ear edema (left ears) value: unit not given here
Protocol: Irritant contact dermatitis was induced by applying 5% benzalkonium chloride (100 μl per site, dissolved in olive oil:acetone, 1:5 v/v) on the dorsal aspect of the two ears. Ear diameter was measured as a parameter for edema formation, before and hourly for 6 hours after benzalkonium chloride application, using an electronic caliper. The last measurement was performed at 8-hours after dermatitis induction.
(§2) The tested compounds were applied topically dissolved in ethanol:sterile water (1:1) and applied at a final volume of 100 μl, five minutes after irritant contact dermatitis will be induced.
Ear edema (left ears) value for times 1 to 4 hours after irritant stimuli with benzalkonium chloride are represented in the table 3.

[5] = test system: dermal microvasculature, leukocyte/endothelial cells interaction; assay: Intravital microscopy of skin flap in mice (vessel diameter, rolling leukocytes); format: in vivo, C57B16 male mice; set-up: unit not given here; details: 3 nmol topical
Protocol: C57B16 male mice will be anaesthetized by intraperitoneal injection of a mixture of 10 mg/kg xylazine (MTC Pharmaceuticals, Cambridge, Ontario, Canada) and 200 mg/kg ketamine hydrochloride (Rogar/STB, London, Ontario, Canada). […] Therefore, after anaesthesia, mice will receive an intravenous injection of a fluorescent dye, rhodamine 6G (Sigma, St. Louis, Mo., USA, 0.3 mg/kg). […] Then, a midline abdominal incision will be performed, from the diaphragm, extending to the pelvic region. The skin will carefully be separated from the underlying tissue, but remained attached laterally, so the blood supply to the skin flap remained intact. The skin flap will be extended over a viewing pedestal to expose the dermal microvasculature and secured along the edges using 4.0 sutures. The exposed dermal tissues will be superfused with a bicarbonate-buffered saline pH 7.4, to avoid tissue dehydration. The microcirculation will be observed using an inverted microscope (Nikon) with a ×20 objective lens, and rhodamine 6G allows visualization and quantification of the number of rolling and adherent leukocytes, by epi-illumination at 510-560 nm, using a 590-nm emission filter. Single unbranched venules (20-40 μm in diameter) will be selected for the study. Images of the selected venule will be recorded for […], after a 15-min equilibration period and the end of this 5-min interval was considered as time 0. Leukocyte adherence will be determined upon video playback, on 100 μm vessel length (table 4). A leukocyte will be considered adherent to the endothelium if it remained stationary for 30 s or more. Leukocyte flux will be defined as the number of leukocytes per minute moving at a velocity less than that of erythrocytes, which passed a reference point in the venule. The changes in flux of rolling leukocytes will be evaluated as differences between the number of rolling leukocytes at each interval and the basal number of rolling leukocytes (table 5).
as §2

[6] = 0.48 μg/ear topical 15 min before TPA
[7] = 3 nmol topical, 1 hour after benzalkonium application
[8] = 3 nmol topical, 2 hours after benzalkonium application
[9] = 3 nmol topical, 3 hours after benzalkonium application
[10] = 3 nmol topical, 4 hours after benzalkonium application
[11] = 1 μg/ear topical 15 min before TPA

Structure (SMILES): CC1(C)O[C@@H]2C[C@H]3C4CCC5=CC(=O)C=C[C@]5(C)[C@@]4(F)[C@@H](O)C[C@]3(C)[C@]2(C(=O)COC(=O)c2ccc(CO[N+](=O)[O-])cc2)O1 (stereo partly drawn) [Example 1, (11β,16α)-9-fluoro-11-hydroxy-16,17-[1-methylethylidenebis(oxy)]-21-[1-oxo-[4-(nitrooxymethyl)benzoxy]]pregna-1,4-diene-3,20-dione]
- % inhibition 3 hours post-treatment [1]: 22.70%
- % inhibition 5 hours post-treatment [1]: 21.01%
- TNFalpha [2, 6]: 149.5 ± 17.8 pg/mL
- Inhibition of TNF-α release, result in words ([2]; versus prior art compound): inhibits the release of TNF-α in a higher potency than the prior art compound
- PGE2 [3, 6]: 53.2 ± 4.5 ng/mL
- Reduction of PGE2 level / inflammation, result in words ([3]; low dose versus higher dose of the parent compound): more effective in reducing the inflammation than the correspondent parent compound
- Ear edema (left ears) value ([4]; 0.3 nmol topical, 1 hour after benzalkonium application): 0.026 ± 0.005
- Ear edema (left ears) value ([4]; 0.3 nmol topical, 2 hours after benzalkonium application): 0.035 ± 0.008
- Ear edema (left ears) value ([4]; 0.3 nmol topical, 3 hours after benzalkonium application): 0.053 ± 0.009
- Ear edema (left ears) value ([4]; 0.3 nmol topical, 4 hours after benzalkonium application): 0.047 ± 0.007
- Ear edema (left ears) value ([4]; 1 nmol topical, 1 hour after benzalkonium application): 0.020 ± 0.006
- Ear edema (left ears) value ([4]; 1 nmol topical, 2 hours after benzalkonium application): 0.035 ± 0.008
- Ear edema (left ears) value ([4]; 1 nmol topical, 3 hours after benzalkonium application): 0.057 ± 0.011
- Ear edema (left ears) value ([4]; 1 nmol topical, 4 hours after benzalkonium application): 0.065 ± 0.010
- Ear edema (left ears) value [4, 7]: 0.018 ± 0.004
- Ear edema (left ears) value [4, 8]: 0.042 ± 0.007
- Ear edema (left ears) value [4, 9]: 0.042 ± 0.010
- Ear edema (left ears) value [4, 10]: 0.070 ± 0.007
- Inhibition of ear edema, result in words ([4]; compared with triamcinolone acetonide, mainly at earlier times): dose-dependent effect in inhibiting ear edema with a better profile than triamcinolone acetonide
- Area under the curve (change in flux of rolling leucocytes) [5]: 247 ± 35
- Area under the curve (change in vessel diameter) [5]: 114 ± 32

Structure (SMILES): CCOC(=O)O[C@]1(C(=O)COC(=O)c2ccc(CO[N+](=O)[O-])cc2)CC[C@H]2[C@@H]3CCC4=CC(=O)C=C[C@]4(C)[C@H]3[C@@H](O)C[C@@]21C [Example 2, (11β)-17-[(ethoxycarbonyl)oxy]-11-hydroxy-21-[1-oxo-[4-(nitrooxymethyl)benzoxy]]pregna-1,4-diene-3,20-dione]
- % inhibition 3 hours post-treatment [1]: 33.26%
- Ear edema (left ears) value [4, 7]: 0.025 ± 0.008
- Ear edema (left ears) value [4, 8]: 0.028 ± 0.009
- Ear edema (left ears) value [4, 9]: 0.040 ± 0.009
- Ear edema (left ears) value [4, 10]: 0.061 ± 0.007
- Area under the curve (change in flux of rolling leucocytes) [5]: 300 ± 75
- Area under the curve (change in vessel diameter) [5]: 175 ± 70

Structure (SMILES): CCOC(=O)O[C@]1(C(=O)COC(=O)CC)CC[C@H]2[C@@H]3CCC4=CC(=O)C=C[C@]4(C)[C@H]3[C@@H](O)C[C@@]21C [Prednicarbate, reference compound]
- % inhibition 3 hours post-treatment [1]: 19.58%
- Area under the curve (change in flux of rolling leucocytes) [5]: 412 ± 112
- Area under the curve (change in vessel diameter) [5]: 282 ± 71

Structure (SMILES): CC1(C)O[C@@H]2C[C@H]3[C@@H]4CCC5=CC(=O)C=C[C@]5(C)[C@@]4(F)[C@@H](O)C[C@]3(C)[C@]2(C(=O)CO)O1 [Triamcinolone acetonide, reference compound]
- % inhibition 3 hours post-treatment [1]: 14.90%
- % inhibition 5 hours post-treatment [1]: 12.19%
- TNFalpha [2, 11]: 158.0 ± 24.6 pg/mL
- PGE2 [3, 11]: 43.0 ± 3.8 ng/mL
- Ear edema (left ears) value [4, 7]: 0.037 ± 0.005
- Ear edema (left ears) value [4, 8]: 0.063 ± 0.010
- Ear edema (left ears) value [4, 9]: 0.041 ± 0.018
- Ear edema (left ears) value [4, 10]: 0.068 ± 0.022
- Area under the curve (change in flux of rolling leucocytes) [5]: 376 ± 129
- Area under the curve (change in vessel diameter) [5]: 278 ± 78

— patent US20090258849A1, “NITROOXY DERIVATIVES OF GLUCOCORTICOIDS” (Nicox S.A., priority 2005, published 2009)
